Patent US20050142065A1, “Screening method” (priority 2002, published 2005)
Structures can show the parent of a compound that is named as a salt.

Key:
Wistar fatty rats = test: Glycated hemoglobin value in Wistar fatty rats given the compound in powder diet; assay type: in vivo, rat; settings: for decrease in the glycated hemoglobin value, corrected for control group: minus decrease in control a group; for decrease in glycated hemoglobin value (before minus after administration): male Wistar fatty rats
Protocol: In this Experimental Example, the blood of the rats were taken in a microtube finally containing 0.01M EDTA as an anticoagulant agent, for the measurement of blood glucose level and glycated hemoglobin value. The glycated hemoglobin value was measured by high performance liquid chromatograph (HLC-723GhbVA1c2.2 (product name, manufactured by Tosoh Corporation)) using an aminophenyl boronate affinity column and an absorbance (415 nm) detection method. For the mobile phase, eluents A, B (manufactured by Tosoh Corporation) were used, and the conditions set for chromatography, such as column temperature, flow rate and the like, followed the standard conditions set for this chromatography. […] The glycated hemoglobin value was measured at 4 and 5 weeks after the start of the experiment.

[1] = system: Diabetes mellitus patients; test: Hemoglobin A1c value in diabetes mellitus patients after oral administration; assay type: in vivo, human; settings: 30 mg daily dose
Protocol: Diabetes mellitus patients (134 patients, age 57.6±11.5 years old, fasting blood glucose level 183.2±35.2 mg/dl, hemoglobin A1c value 9.27±1.60%) were divided into 2 groups.

CCc1ccc(CCOc2ccc(CC3SC(=O)NC3=O)cc2)nc1 (centres unmarked) [pioglitazone hydrochloride]
decrease in the glycated hemoglobin value, corrected for control group (Wistar fatty rats; b group, 0.8 mg/kg body weight daily in diet, 4 weeks): 1.1% | decrease in the glycated hemoglobin value, corrected for control group (Wistar fatty rats; b group, 0.8 mg/kg body weight daily in diet, 5 weeks): 1.3% | decrease in glycated hemoglobin value (before minus after administration) (Wistar fatty rats; b group, 0.8 mg/kg body weight daily in diet, 4 weeks after start of administration): 1.4% | decrease in glycated hemoglobin value (before minus after administration) (Wistar fatty rats; b group, 0.8 mg/kg body weight daily in diet, 5 weeks after start of administration): 1.9% | decrease in the glycated hemoglobin value, corrected for control group (Wistar fatty rats; c group, 2.4 mg/kg body weight daily in diet, 4 weeks): 2.5% | decrease in the glycated hemoglobin value, corrected for control group (Wistar fatty rats; c group, 2.4 mg/kg body weight daily in diet, 5 weeks): 2.7% | decrease in glycated hemoglobin value (before minus after administration) (Wistar fatty rats; c group, 2.4 mg/kg body weight daily in diet, 4 weeks after start of administration): 2.8% | decrease in glycated hemoglobin value (before minus after administration) (Wistar fatty rats; c group, 2.4 mg/kg body weight daily in diet, 5 weeks after start of administration): 3.3% | decrease in the hemoglobin A1c value ([1]; 8 weeks after start of administration): 0.70% | decrease in hemoglobin A1c value, corrected for placebo group ([1]; 8 weeks, minus decrease in placebo group): 0.68% | decrease in the hemoglobin A1c value ([1]; 12 weeks after start of administration): 1.08%
